Inconclusive results and toxic doses are left out.
Tested on: P388 leukemia ip, CD2F1 mice, survival T/C
Test: NCI In Vivo Anticancer Drug Screen. Data for tumor model P388 Leukemia (intraperitoneal) in CD2F1 (CDF1) mice
Conditions: endpoint: median survival time, higher = longer survival
In short: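 Mice carrying the transplanted tumor received test compound or vehicle. Survival was recorded in each group, and the value is the treated-group measurement divided by that of the vehicle-treated control group.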

[1] = dose: 50.0 mg/kg/injection, schedule: Q01DX005 (ip), vehicle: Klucel (hydroxypropylcellulose) (HPC)
[2] = dose: 100.0 mg/kg/injection, schedule: Q01DX005 (ip), vehicle: Klucel (hydroxypropylcellulose) (HPC)
[3] = dose: 200.0 mg/kg/injection, schedule: Q01DX005 (ip), vehicle: Klucel (hydroxypropylcellulose) (HPC)
[4] = dose: 50.0 mg/kg/injection, schedule: Q01DX009 (ip), vehicle: saline
[5] = dose: 100.0 mg/kg/injection, schedule: Q01DX009 (ip), vehicle: saline
[6] = dose: 200.0 mg/kg/injection, schedule: Q01DX009 (ip), vehicle: saline
[7] = dose: 60.0 mg/kg/injection, schedule: Q01DX005 (ip), vehicle: saline with Tween-80
[8] = dose: 120.0 mg/kg/injection, schedule: Q01DX005 (ip), vehicle: saline with Tween-80
[9] = dose: 240.0 mg/kg/injection, schedule: Q01DX005 (ip), vehicle: saline with Tween-80

C[Si](C)(C)N1[Si](C)(C)N[Si](C)(C)N([Si](C)(C)F)[Si]1(C)C
T/C [1]: 113 % of control
T/C [2]: 105 % of control
T/C [3]: 104 % of control

Cc1cc(C)n(/C(N)=N/[N+](=O)[O-])n1
T/C [4]: 96 % of control
T/C [5]: 105 % of control
T/C [6]: 86 % of control

CC(C)CC(NC(=O)OCC1c2ccccc2-c2ccccc21)C(=O)O (stereo not drawn)
T/C [1]: 101 % of control
T/C [2]: 100 % of control

O=S(=O)(Nc1ccc(Br)c2ccccc12)c1ccccc1
T/C (dose: 18.75 mg/kg/injection, schedule: Q01DX001 (ip), vehicle: saline with Tween-80): 95 % of control
T/C (dose: 37.5 mg/kg/injection, schedule: Q01DX001 (ip), vehicle: saline with Tween-80): 95 % of control
T/C (dose: 75.0 mg/kg/injection, schedule: Q01DX001 (ip), vehicle: saline with Tween-80): 95 % of control

[O-]/[N+](=C\c1ccccc1)C(c1ccccc1)c1ccccc1
T/C (dose: 25.0 mg/kg/injection, schedule: Q04DX003 (ip), vehicle: saline): 100 % of control
T/C (dose: 50.0 mg/kg/injection, schedule: Q04DX003 (ip), vehicle: saline): 100 % of control
T/C (dose: 100.0 mg/kg/injection, schedule: Q04DX003 (ip), vehicle: saline): 100 % of control

CCOC(=O)Nc1cc2c(c(N)n1)N=C(c1ccc(Cl)c(Cl)c1)CN2
T/C (dose: 5.0 mg/kg/injection, schedule: Q01DX005 (ip), vehicle: saline with Tween-80): 121 % of control
T/C (dose: 10.0 mg/kg/injection, schedule: Q01DX005 (ip), vehicle: saline with Tween-80): 158 % of control

CCOC(=O)c1cccc(N)c1C(=O)OCCN(CC)CC
T/C [1]: 93 % of control
T/C [2]: 87 % of control
T/C [3]: 99 % of control

Cn1c(=O)c2c(ncn2CCN2CCNCC2)n(C)c1=O
T/C (dose: 50.0 mg/kg/injection, schedule: Q01DX005 (ip), vehicle: distilled water + alcohol): 102 % of control
T/C (dose: 100.0 mg/kg/injection, schedule: Q01DX005 (ip), vehicle: distilled water + alcohol): 100 % of control
T/C (dose: 200.0 mg/kg/injection, schedule: Q01DX005 (ip), vehicle: distilled water + alcohol): 100 % of control

Cc1c2cccc1CSCc1cccc(c1C)CSC2
T/C (dose: 50.0 mg/kg/injection, schedule: Q01DX009 (ip), vehicle: suspension in saline): 99 % of control
T/C (dose: 100.0 mg/kg/injection, schedule: Q01DX009 (ip), vehicle: suspension in saline): 92 % of control
T/C (dose: 200.0 mg/kg/injection, schedule: Q01DX009 (ip), vehicle: suspension in saline): 100 % of control

C[Si](C)(C)Cc1ccccc1C(=O)O
T/C [7]: 100 % of control
T/C [8]: 103 % of control
T/C [9]: 94 % of control

O=C1C2=C(Nc3cc([N+](=O)[O-])ccc3N2)OC1c1ccccn1 (stereo not drawn)
T/C (dose: 30.0 mg/kg/injection, schedule: Q01DX005 (ip), vehicle: Klucel (hydroxypropylcellulose) (HPC)): 119 % of control
T/C (dose: 60.0 mg/kg/injection, schedule: Q01DX005 (ip), vehicle: Klucel (hydroxypropylcellulose) (HPC)): 122 % of control
T/C (dose: 120.0 mg/kg/injection, schedule: Q01DX005 (ip), vehicle: Klucel (hydroxypropylcellulose) (HPC)): 121 % of control

COc1cc(Br)c(C(=O)N2CCCc3ccccc32)cc1OC
T/C (dose: 12.5 mg/kg/injection, schedule: Q01DX009 (ip), vehicle: other): 101 % of control
T/C (dose: 25.0 mg/kg/injection, schedule: Q01DX009 (ip), vehicle: other): 94 % of control
T/C (dose: 50.0 mg/kg/injection, schedule: Q01DX009 (ip), vehicle: other): 91 % of control
T/C (dose: 100.0 mg/kg/injection, schedule: Q01DX009 (ip), vehicle: other): 91 % of control
T/C (dose: 200.0 mg/kg/injection, schedule: Q01DX009 (ip), vehicle: other): 94 % of control

CCNc1cc(N)[n+](CC)c2n[nH]c(N)c12
T/C (dose: 50.0 mg/kg/injection, schedule: Q01DX005 (ip), vehicle: saline): 112 % of control
T/C (dose: 100.0 mg/kg/injection, schedule: Q01DX005 (ip), vehicle: saline): 111 % of control

O=[N+]([O-])c1cccnc1N=Nc1c(O)[nH]c2ccccc12
T/C [7]: 100 % of control
T/C [8]: 101 % of control
T/C [9]: 110 % of control

Nc1cc(=O)nc2cn[nH]n12
T/C [4]: 92 % of control
T/C [5]: 101 % of control
T/C [6]: 90 % of control

C[As](C)SCC1OC(n2ccc(=O)[nH]c2=O)C2OC(C)(C)OC12 (stereo not drawn)
T/C (dose: 12.5 mg/kg/injection, schedule: Q01DX009 (ip), vehicle: distilled water + Tween-80): 103 % of control
T/C (dose: 25.0 mg/kg/injection, schedule: Q01DX009 (ip), vehicle: distilled water + Tween-80): 110 % of control
T/C (dose: 50.0 mg/kg/injection, schedule: Q01DX009 (ip), vehicle: distilled water + Tween-80): 116 % of control
T/C (dose: 100.0 mg/kg/injection, schedule: Q01DX009 (ip), vehicle: distilled water + Tween-80): 113 % of control
